Laboratory results: paper PMC9667936, “Functional mapping of the 14-3-3 hub protein as a guide to design 14-3-3 molecular glues” (Chemical Science, 2022)
Read-outs that look alike come from different tables or passages of the source. Where a SMILES comes first, the peptide text is derived from it. [ ]: non-standard residue; d: D form. ξ: configuration not given here. Phe(4-NO2) = N[C@@H](Cc1ccc([N+](=O)[O-])cc1)C(=O)O; ξAla(4-thiazolyl) = NC(Cc1cscn1)C(=O)O; pS = N[C@@H](COP(=O)(O)O)C(=O)O; β3hS = N[C@@H](CO)CC(=O)O; Nva = CCC[C@H](N)C(=O)O; βAla = NCCC(=O)O

Biological target: T1, 14-3-3γ (Homo sapiens, UniProt P61981)
T1 construct: made in house; host or cells: E. coli NiCo21 (DE3)
T1 sequence (P61981 1-247): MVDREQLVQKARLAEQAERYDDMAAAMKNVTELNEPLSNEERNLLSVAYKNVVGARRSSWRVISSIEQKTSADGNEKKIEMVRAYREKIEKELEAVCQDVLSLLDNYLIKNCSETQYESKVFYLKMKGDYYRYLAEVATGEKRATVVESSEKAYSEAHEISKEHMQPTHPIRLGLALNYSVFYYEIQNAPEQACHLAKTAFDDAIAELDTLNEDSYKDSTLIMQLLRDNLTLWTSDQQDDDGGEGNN
Assay: Isothermal titration calorimetry (ITC) of 14-3-3 binding to peptide
Conditions: for Fold change to 1: ITC Kd / Kd of peptide 1; for ΔG / Kd / ΔH / -TΔS: 25 °C; for Kd: Table S6 (unit as in Table S5)
Description: 14-3-3γ protein expression (FP/ITC experiments)
A pPROEX HTb expression vector encoding the human 14-3-3 protein gamma (14-3-3γ) with an N-terminal his6-tag was transformed by heat shock into NiCo21 (DE3) competent cells. Single colonies were cultured in 50 mL LB medium (100 µg/mL ampicillin). After overnight incubation at 37 °C, cultures were transferred to 2 L TB media (100 µg/mL ampicillin, 1 mM MgCl2) and incubated at 37 °C until an OD600 nm of 0.8-1.2 was reached. Protein expression was then induced with 0.4 mM isopropyl-β-d-thiogalactoside (IPTG), and cultures were incubated overnight at 18 °C. Cells were harvested by centrifugation (8600 rpm, 20 minutes, 4 °C) and resuspended in lysis buffer (50 mM Hepes, pH 8.0, 300 mM NaCl, 12.5 mM imidazole, 5 mM MgCl2, 2 mM βME) containing cOmplete™ EDTA-free Protease Inhibitor Cocktail tablets (1 tablet/100 ml lysate) and benzonase (1 µl/100 ml). After lysis using a C3 Emulsiflex-C3 homogenizer (Avestin), the cell lysate was cleared by centrifugation (20000 rpm, 30 minutes, 4 °C) and purified using Ni2+-affinity chromatography (Ni-NTA superflow cartridges, Qiagen).
Typically two 5 mL columns (flow 5 mL/min) were used for a 2 L culture in which the lysate was loaded on the column washed with 10 CV wash buffer (50 mM Hepes, pH 8.0, 300 mM NaCl, 25 mM imidazole, 2 mM βME) and eluted in several fractions (2-4 CV) of elution buffer (50 mM Hepes, pH 8.0, 300 mM NaCl, 250 mM imidazole, 2 mM βME). Fractions containing the 14-3-3 protein were combined and dialyzed into 25 mM HEPES pH 8.0, 100 mM NaCl, 10 mM MgCl2, 500 µM TCEP. […]
The peptides 1 and 2a-d were synthesized on 50 µmol scale on a Rink amide MBHA resin (Novabiochem, 0.52 mmol/g loading) using an automated Intavis MultiPep RSi peptide synthesizer.
Deprotection was performed twice per cycle with 20% v/v piperidine in DMF for 8 minutes. Fmoc-protected amino acids were mixed in 5 equivalents of HBTU and 9 equivalents of DIPEA in DMF, and coupled to the resin. With the exception of phosphoserine, which was coupled once for 60 minutes, all amino acids were coupled to the resin twice for 30 minutes. Capping of unreacted amino acids was performed with a mixture of acetic anhydride/pyridine/DMF (1:1:3) for 5 minutes. βAla was incorporated as a spacer between the sequence and Lys(Alloc), to which a FITC fluorophore will be coupled for fluorescence anisotropy studies.
The peptides 1 and 2e-i were synthesized manually on a 50 µmol scale using Rink amide MBHA resin (Novabiochem, 0.52 mmol/g loading) via Fmoc based solid phase peptide synthesis. […]
(lex: 485 ± 20 nm; lem: 535 ± 25 nm; mirror: Dichroic 510; flashes: 20; integration time: 50 ms; settle time:
0 ms; gain: optimal; and Z-position: calculated from well). […]
Data was obtained and averaged based on two
To determine the cooperativity parameters from the 2D-titration of 14-3-3/ChREBP/2d (as described above) we have used the general framework for straightforward model construction of multi-component thermodynamic equilibrium systems as described by Geertjens et al. (2021).10 This general platform generates a model to describe multi-component equilibrium systems when given a system description.
In our case we gave the following system description: […]
α (with 95% confidence interval) and the error-landscape of the determine parameters.
Fluorescence anisotropy (FA) – Selectivity study: Peptides representing 14-3-3 binding partners (including ChREBP) were titrated in a 2-fold dilution series (starting at 100 µM) to 20 nM of fluorescein-labeled peptide 2d in presence and absence of, respectively, 2 µM 14-3-3γ in FA buffer (10 mM HEPES pH 7.4, 150 mM NaCl, 0.1% (v/v) Tween20, 0.1% (w/v) BSA). Dilution series were made in a polystyrene (non-binding) low-volume Corning Black Round Bottom 384-well plates (Corning 4514 or 4511).
Measurements were performed directly after plate preparation, using a Tecan Infinite F500 plate reader at room temperature (lex: 485 ± 20 nm; lem: 535 ± 25 nm; mirror: Dichroic 510; flashes: 20; integration […]

[1] = Table S5, ΔG minus ΔG of peptide 1, ITC, first unlabelled line (replicate 1)
[2] = Table S5, ΔG minus ΔG of peptide 1, ITC, second unlabelled line (replicate 2)
[3] = Table S5, ΔG of peptide minus ΔG of peptide 1, ITC, mean of n = 2
[4] = ITC, average of two runs, read-out: Kd
[5] = Table S6 (unit given in Fig. 4 legend), ITC, average of two runs
[6] = Table S6, ITC, average of two runs

| Compound | ΔG (Table S5, ITC, mean of n = 2) [kcal/mol] | ΔG (Table S5, ITC, replicate 1) [kcal/mol] | ΔG (Table S5, ITC, replicate 2) [kcal/mol] | ΔΔG to 1 [1] [kcal/mol] | ΔΔG to 1 [2] [kcal/mol] | ΔΔG to 1 [3] [kcal/mol] | Kd [4] [nM] | Kd (ITC, run 1) | Kd (ITC, run 2) | ΔH [5] | -TΔS [6] | ΔG [6] | -TΔS (Table S6, ITC, run 1) | ΔG (Table S6, ITC, run 1) | ΔH (Table S6, ITC, run 1) | -TΔS (Table S6, ITC, run 2) | ΔG (Table S6, ITC, run 2) | ΔH (Table S6, ITC, run 2) | further results |
| --- | --- | --- | --- | --- | --- | --- | --- | --- | --- | --- | --- | --- | --- | --- | --- | --- | --- | --- | --- |
| CCC[C@H](NC(=O)[C@H](N)CCCCN)C(=O)N[C@@H](Cc1ccc([N+](=O)[O-])cc1)C(=O)NC(Cc1cscn1)C(=O)N[C@@H](COP(=O)(O)O)C(=O)N[C@@H](C)C(=O)N[C@@H](CO)CC(=O)NCCC(=O)N[C@@H](Cc1ccc([N+](=O)[O-])cc1)C(=O)N[C@@H](CCCCN)C(N)=O (stereo partly drawn) [4c] (H-[dK][Nva][Phe(4-NO2)][ξAla(4-thiazolyl)][pS]A[β3hS][βAla][Phe(4-NO2)]K-NH2; N-terminus and C-terminus assumed) | -8.3 | -8.4 | -8.3 | 1.6 | 1.7 | 1.7 | 764 | 6,72E-07 M | 8,56E-07 M | -4,81 kcal mol^-1 | -3,54 kcal mol^-1 | -8,35 kcal mol^-1 | -3,445 kcal mol^-1 | -8,421 kcal mol^-1 | -4,976 kcal mol^-1 | -3,629 kcal mol^-1 | -8,278 kcal mol^-1 | -4,649 kcal mol^-1 | ΔΔG of point mutation (ITC) (ITC, relative to 1, mean ± SD, SD): 1.7 ± 0.1 kcal/mol; Fold change to 1 (Table S5, first unlabelled line (replicate 1)): 15.0; Fold change to 1 (Table S5, second unlabelled line (replicate 2)): 18.9 |
| CCC[C@H](NC(=O)[C@H](N)CCCCN)C(=O)N[C@@H](Cc1ccc([N+](=O)[O-])cc1)C(=O)NC(Cc1cscn1)C(=O)N[C@@H](COP(=O)(O)O)C(=O)N[C@@H](Cc1ccc([N+](=O)[O-])cc1)C(=O)N[C@@H](CO)CC(=O)NCCC(=O)N[C@@H](Cc1ccc(O)cc1)C(=O)N[C@@H](CCCCN)C(N)=O (stereo partly drawn) [5a] (H-[dK][Nva][Phe(4-NO2)][ξAla(4-thiazolyl)][pS][Phe(4-NO2)][β3hS][βAla]YK-NH2; N-terminus and C-terminus assumed) | -7.8 | -7.9 | -7.6 | 2.1 | 2.4 | 2.2 | 2060 | 1,55E-06 M | 2,57E-06 M | -5,21 kcal mol^-1 | -2,57 kcal mol^-1 | -7,78 kcal mol^-1 | -1,834 kcal mol^-1 | -7,925 kcal mol^-1 | -6,091 kcal mol^-1 | -3,299 kcal mol^-1 | -7,626 kcal mol^-1 | -4,328 kcal mol^-1 |  |
| CCC[C@H](NC(=O)[C@H](N)CCCCN)C(=O)N[C@@H](Cc1ccc([N+](=O)[O-])cc1)C(=O)NC(Cc1cscn1)C(=O)N[C@@H](COP(=O)(O)O)C(=O)N[C@@H](Cc1ccc([N+](=O)[O-])cc1)C(=O)N[C@@H](CO)CC(=O)NCCC(=O)N[C@@H](Cc1ccccc1)C(=O)N[C@@H](CCCCN)C(N)=O (stereo partly drawn) [5b] (H-[dK][Nva][Phe(4-NO2)][ξAla(4-thiazolyl)][pS][Phe(4-NO2)][β3hS][βAla]FK-NH2; N-terminus and C-terminus assumed) | -7.9 | -7.9 | -7.8 | 2.1 | 2.2 | 2.1 | 1450 | 1,06E-06 M | 1,85E-06 M | -4,72 kcal mol^-1 | -3,16 kcal mol^-1 | -7,88 kcal mol^-1 | -3,227 kcal mol^-1 | -7,943 kcal mol^-1 | -4,716 kcal mol^-1 | -3,096 kcal mol^-1 | -7,821 kcal mol^-1 | -4,725 kcal mol^-1 | increase of enthalpy (ΔH) on removal of the nitro group, relative to peptide 1 (ITC, n = 2, Fig. 4c): ~6 kcal/mol |
| CCC[C@H](NC(=O)[C@H](N)CCCCN)C(=O)N[C@@H](Cc1ccc([N+](=O)[O-])cc1)C(=O)NC(Cc1cscn1)C(=O)N[C@@H](COP(=O)(O)O)C(=O)N[C@@H](Cc1ccc([N+](=O)[O-])cc1)C(=O)N[C@@H](CO)CC(=O)NCCC(=O)N[C@@H](C)C(=O)N[C@@H](CCCCN)C(N)=O (stereo partly drawn) [5c] (H-[dK][Nva][Phe(4-NO2)][ξAla(4-thiazolyl)][pS][Phe(4-NO2)][β3hS][βAla]AK-NH2; N-terminus and C-terminus assumed) | -7.4 | -7.4 | -7.3 | 2.6 | 2.7 | 2.6 | 3910 | 3,48E-06 M | 4,33E-06 M | -2,89 kcal mol^-1 | -4,49 kcal mol^-1 | -7,38 kcal mol^-1 | -5,204 kcal mol^-1 | -7,446 kcal mol^-1 | -2,242 kcal mol^-1 | -3,779 kcal mol^-1 | -7,317 kcal mol^-1 | -3,539 kcal mol^-1 |  |
